Source: US12351580B2, “NLRP3 modulators” (Innate Tumor Immunity, Inc., priority 2017, dated 2025)

Target: T1, hNLRP3 (Homo sapiens, UniProt Q96P20)
T1 construct: THP-1 cells were purchased from the American Type Culture Collection; host or cells: THP-1 cells, PMA-differentiated
Assay: Measurement of IL-1β production in PMA-differentiated THP-1 cells (hNLRP3 agonist; ELISA, alternative and hTRF procedures)
Assay type: cell-based
Outline: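 Supernatant IL-1β was quantified by ELISA in two procedures and by hTRF (kit antibodies at 1:40) in a third. THP-1 cells were first differentiated with PMA ([…] for 24 h; 20 μg/ml overnight; 50 ng/ml overnight), then incubated in 2% FBS RPMI with compounds for 4 h, 2 h and 2 h, respectively, at 1% DMSO or a 10 μM top concentration.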

T1 sequence (Q96P20 whole entry): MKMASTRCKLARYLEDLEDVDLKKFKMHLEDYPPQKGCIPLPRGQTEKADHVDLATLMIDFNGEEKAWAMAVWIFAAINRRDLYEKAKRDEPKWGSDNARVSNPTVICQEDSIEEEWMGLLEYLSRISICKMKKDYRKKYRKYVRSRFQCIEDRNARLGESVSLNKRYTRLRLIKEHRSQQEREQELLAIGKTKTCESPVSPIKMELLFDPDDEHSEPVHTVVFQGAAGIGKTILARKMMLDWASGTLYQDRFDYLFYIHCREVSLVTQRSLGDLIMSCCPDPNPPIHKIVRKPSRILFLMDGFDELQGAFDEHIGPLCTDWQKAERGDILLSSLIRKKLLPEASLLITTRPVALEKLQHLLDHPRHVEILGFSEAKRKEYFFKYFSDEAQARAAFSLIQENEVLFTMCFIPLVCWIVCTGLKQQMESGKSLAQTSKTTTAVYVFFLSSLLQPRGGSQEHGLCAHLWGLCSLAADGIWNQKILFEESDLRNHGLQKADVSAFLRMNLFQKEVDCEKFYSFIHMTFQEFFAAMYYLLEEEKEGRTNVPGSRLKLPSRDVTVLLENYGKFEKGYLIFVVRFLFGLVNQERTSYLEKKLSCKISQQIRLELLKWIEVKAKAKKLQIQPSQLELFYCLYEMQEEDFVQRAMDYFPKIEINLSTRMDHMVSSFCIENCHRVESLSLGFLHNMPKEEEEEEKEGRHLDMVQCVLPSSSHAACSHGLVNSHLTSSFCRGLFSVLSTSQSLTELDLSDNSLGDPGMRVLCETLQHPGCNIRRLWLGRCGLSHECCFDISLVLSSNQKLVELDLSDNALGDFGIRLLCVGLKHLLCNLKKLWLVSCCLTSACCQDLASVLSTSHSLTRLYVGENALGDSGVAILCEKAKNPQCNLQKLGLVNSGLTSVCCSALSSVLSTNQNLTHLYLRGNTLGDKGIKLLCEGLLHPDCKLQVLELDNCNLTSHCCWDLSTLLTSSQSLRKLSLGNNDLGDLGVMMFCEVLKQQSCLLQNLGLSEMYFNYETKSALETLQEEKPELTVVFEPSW

Row | EC50 [µM] | Structure (SMILES)
1 | 6.6 | COC(=O)CCCn1c(CN2CCCC2=O)nc2c(N)nc3cc(Cl)ccc3c21 [Compound 216]
2 | 96 | CCN(Cc1nc2c(N)nc3cc(Cl)ccc3c2n1CCCC(=O)NC)C(C)=O [Compound 217]
3 | 1.2 | CCN(Cc1nc2c(N)nc3cc(Br)ccc3c2n1CCCC(=O)OC)C(C)=O [Compound 218]
4 | 2 | CCN(Cc1nc2c(N)nc3cc(Cl)ccc3c2n1CCCC(=O)OC)C(C)=O [Compound 219]
5 | 51 | CCN(Cc1nc2c(N)nc3cc(Cl)ccc3c2n1CCCC(=O)N1CCOCC1)C(C)=O [Compound 220]
6 | 85 | CCN(Cc1nc2c(N)nc3cc(Cl)ccc3c2n1CCCC(=O)N1CCN(C)CC1)C(C)=O [Compound 221]
7 | 42 | CCN(Cc1nc2c(N)nc3cc(Cl)ccc3c2n1CCCC(=O)N1CCCC1)C(C)=O [Compound 222]
8 | 77 | CCN(Cc1nc2c(N)nc3ccccc3c2n1CCC(=O)N1CCS(=O)(=O)CC1)C(=O)OC(C)(C)C [Compound 223]
9 | 10.9 | CCNCc1nc2c(N)nc3cc(Br)ccc3c2[nH]1 [Compound 225]
10 | 85 | CCN(Cc1nc2c(N)nc3cc(C(F)(F)F)ccc3c2n1CCCC(=O)NC)C(=O)OC(C)(C)C [Compound 226]
11 | 22.7 | CCNCc1nc2c(N)nc3cc(C(F)(F)F)ccc3c2n1CCCC(=O)OC [Compound 227]
12 | 93 | CCN(Cc1nc2c(N)nc3cc(C(F)(F)F)ccc3c2n1CCCC(=O)N1CCOCC1)C(=O)OC(C)(C)C [Compound 228]
13 | 12.3 | CCN(Cc1nc2c(N)nc3cc(C(F)(F)F)ccc3c2n1CCCC(=O)OC)C(C)=O [Compound 229]
14 | 4.5 | COc1ccc(-c2ccc3c(c2)nc(N)c2nc(CN4CCCC4=O)[nH]c23)cc1 [Compound 230]
15 | 120 | CC(=O)NCc1nc2c(N)nc3ccccc3c2[nH]1 [Compound 233]
16 | 10.8 | Nc1nc2ccccc2c2[nH]c(CN3CCCC3=O)nc12 [Compound 278]
17 | 7.5 | Nc1nc2cc(-c3cccnc3)ccc2c2[nH]c(CN3CCCC3=O)nc12 [Compound 279, 1-[(4-amino-7-pyridin-3-yl-1H-imidazo[4,5-c]quinolin-2-yl)methyl]pyrrolidin-2-one]
18 | 0.22 | Nc1nc2cc(-c3ccccc3)ccc2c2[nH]c(CN3CCCC3=O)nc12 [Compound 280, 1-[(4-amino-7-phenyl-1H-imidazo[4,5-c]quinolin-2-yl)methyl]pyrrolidin-2-one]

Row | EC50 [µM] | Structure (SMILES)
19 | 1.4 | Nc1nc2cc(-c3ccccc3Cl)ccc2c2[nH]c(CN3CCCC3=O)nc12 [Compound 281, 1-[[4-amino-7-(2-chlorophenyl)-1H-imidazo[4,5-c]quinolin-2-yl]methyl]pyrrolidin-2-one]
20 | 4.8 | Cc1ccccc1-c1ccc2c(c1)nc(N)c1nc(CN3CCCC3=O)[nH]c12 [Compound 282, 1-[[4-amino-7-(2-methylphenyl)-1H-imidazo[4,5-c]quinolin-2-yl]methyl]pyrrolidin-2-one]
21 | 6.5 | COc1ccccc1-c1ccc2c(c1)nc(N)c1nc(CN3CCCC3=O)[nH]c12 [Compound 283, 1-[[4-amino-7-(2-methoxyphenyl)-1H-imidazo[4,5-c]quinolin-2-yl]methyl]pyrrolidin-2-one]
22 | 0.86 | Nc1nc2cc(-c3ccccc3F)ccc2c2[nH]c(CN3CCCC3=O)nc12 [Compound 284, 1-[[4-amino-7-(2-fluorophenyl)-1H-imidazo[4,5-c]quinolin-2-yl]methyl]pyrrolidin-2-one]
23 | 5.7 | Nc1nc2cc(-c3cccc(Cl)c3)ccc2c2[nH]c(CN3CCCC3=O)nc12 [Compound 285, 1-[[4-amino-7-(3-chlorophenyl)-1H-imidazo[4,5-c]quinolin-2-yl]methyl]pyrrolidin-2-one]
24 | 0.61 | Cc1cccc(-c2ccc3c(c2)nc(N)c2nc(CN4CCCC4=O)[nH]c23)c1 [Compound 286, 1-[[4-amino-7-(3-methylphenyl)-1H-imidazo[4,5-c]quinolin-2-yl]methyl]pyrrolidin-2-one]
25 | 1.08 | COc1cccc(-c2ccc3c(c2)nc(N)c2nc(CN4CCCC4=O)[nH]c23)c1 [Compound 287, 1-[[4-amino-7-(3-methoxyphenyl)-1H-imidazo[4,5-c]quinolin-2-yl]methyl]pyrrolidin-2-one]
26 | 10.1 | N#Cc1cccc(-c2ccc3c(c2)nc(N)c2nc(CN4CCCC4=O)[nH]c23)c1 [Compound 288, 3-[4-amino-2-[(2-oxopyrrolidin-l-yl)methyl]-1H-imidazo[4,5-c]quinolin-7-yl]benzonitrile]
27 | 1.58 | Nc1nc2cc(-c3cccc(F)c3)ccc2c2[nH]c(CN3CCCC3=O)nc12 [Compound 289, 1-[[4-amino-7-(3-fluorophenyl)-1H-imidazo[4,5-c]quinolin-2-yl]methyl]pyrrolidin-2-one]
28 | 0.11 | Cc1ccc(-c2ccc3c(c2)nc(N)c2nc(CN4CCCC4=O)[nH]c23)cc1 [Compound 291, 1-[[4-amino-7-(4-methylphenyl)-1H-imidazo[4,5-c]quinolin-2-yl]methyl]pyrrolidin-2-one]
29 | 4.6 | Nc1nc2cc(Br)ccc2c2[nH]c(CN3CCCC3=O)nc12 [Compound 294, 1-[(4-amino-7-bromo-1H-imidazo[4,5-c]quinolin-2-yl)methyl]pyrrolidin-2-one]
30 | 1.2 | Nc1nc2cc(-n3cccn3)ccc2c2[nH]c(CN3CCCC3=O)nc12 [Compound 295, 1-[(4-amino-7-pyrazol-1-yl-1H-imidazo[4,5-c]quinolin-2-yl)methyl]pyrrolidin-2-one]
31 | 5.1 | Cc1cnn(-c2ccc3c(c2)nc(N)c2nc(CN4CCCC4=O)[nH]c23)c1 [Compound 296, 1-[[4-amino-7-(4-methylpyrazol-1-yl)-1H-imidazo[4,5-c]quinolin-2-yl]methyl]pyrrolidin-2-one]
32 | 21 | Nc1nc2cc(C3CCOCC3)ccc2c2[nH]c(CN3CCCC3=O)nc12 [Compound 298, 1-[[4-amino-7-(oxan-4-yl)-1H-imidazo[4,5-c]quinolin-2-yl]methyl]pyrrolidin-2-one]
33 | 2.93 | Cc1ccn(-c2ccc3c(c2)nc(N)c2nc(CN4CCCC4=O)[nH]c23)n1 [Compound 301, 1-[[4-amino-7-(3-methylpyrazol-1-yl)-1H-imidazo[4,5-c]quinolin-2-yl]methyl]pyrrolidin-2-one]
34 | 0.93 | Nc1nc2cc(C3CCCCC3)ccc2c2[nH]c(CN3CCCC3=O)nc12 [Compound 302, 1-[(4-amino-7-cyclohexyl-1H-imidazo[4,5-c]quinolin-2-yl)methyl]pyrrolidin-2-one]
35 | 11.1 | CC(c1nc2c(N)nc3cc(Br)ccc3c2[nH]1)N1CCCC1=O (centres unmarked) [Compound 303, 1-[1-(4-amino-7-bromo-1H-imidazo[4,5-c]quinolin-2-yl)ethyl]pyrrolidin-2-one]
